The text below walks through data of the NIST ThermoML archive (doi:10.1021/je0602723).

A short description of the data set: activity coefficient (dimensionless); of the first substance listed, at infinite dilution; xn = mol fraction of the nth substance listed. The conditions noted are these: Liquid, Chromatography, x1 = 0.

SMILES strings stand for the structures. Numbers after ± are expanded uncertainties.

As to `CCCCc1ccccc1` [butylbenzene] + CCOS(=O)(=O)[O-].CCn1cc[n+](C)c1, the activity coefficient (343.7 K) amounted to 28.4 ± 1.9; the activity coefficient (354.3 K) is 26.3 ± 1.8; the activity coefficient (364.8 K) is 24.7 ± 1.7; the activity coefficient (375.1 K) was found to be 23.2 ± 1.6; the activity coefficient (385.6 K) turned out to be 21.6 ± 1.5; the activity coefficient (396.1 K) worked out at 20.1 ± 1.4.
Take `O=C1CCCCCN1` [1-aza-2-cycloheptanone] + CCOS(=O)(=O)[O-].CCn1cc[n+](C)c1: the activity coefficient is, setting by setting: (412.3 K) 5.1 ± 0.35; (417.1 K) 6.1 ± 0.42; (427.1 K) 4.9 ± 0.33.
For `CC(C)O` [propan-2-ol] + CCOS(=O)(=O)[O-].CCn1cc[n+](C)c1, the activity coefficient by setting is: (302.5 K) 1.49 ± 0.1; (312.2 K) 1.41 ± 0.09; (322.8 K) 1.29 ± 0.08; (333.4 K) 1.22 ± 0.08; (343.9 K) 1.15 ± 0.07.
In the case of `CCCCCO` [pentan-1-ol] + CCOS(=O)(=O)[O-].CCn1cc[n+](C)c1, the activity coefficient by setting is: (333.4 K) 2.58 ± 0.18; (343.9 K) 2.36 ± 0.16; (354.4 K) 2.22 ± 0.15; (364.7 K) 2.12 ± 0.14.
In the case of `CCCCCCC=O` [heptanal] + CCOS(=O)(=O)[O-].CCn1cc[n+](C)c1, the activity coefficient reads like this: (303.3 K) 16.1 ± 1.1; (312.2 K) 15 ± 1; (322.8 K) 14 ± 0.96; (333.3 K) 13.1 ± 0.89; (354.2 K) 11.4 ± 0.78.
As to `c1ccccc1` [benzene] + CCOS(=O)(=O)[O-].CCn1cc[n+](C)c1, the activity coefficient reads like this: (301.8 K) 2.98 ± 0.2; (312.3 K) 2.94 ± 0.2; (323 K) 2.88 ± 0.2; (333.5 K) 2.79 ± 0.19; (343.9 K) 2.69 ± 0.18; (354.4 K) 2.59 ± 0.18. Also, the activity coefficient (364.7 K) was 2.5 ± 0.17.
Regarding `CCCCCC=O` [hexanal] + CCOS(=O)(=O)[O-].CCn1cc[n+](C)c1, the activity coefficient runs as follows: (312.2 K) 11.4 ± 0.78; (322.9 K) 11.3 ± 0.77; (333.4 K) 11.1 ± 0.76.
